Legend:
[1] = biological target: T1, CERT (Homo sapiens, UniProt Q9Y5P4); assay: Degradation of CERT in cultured human breast cancer cells (SDS-PAGE and immunoblot); format: cell-based; conditions: for degradation of CERT / levels of CERT in cells: 24 h; for degradation of CERT: immunoblot vs DMSO
T1 construct: endogenous in cells; host or cells: MDA-MB-231, MDA-MB-453 (WT and lapatinib-resistant), BT-474 (WT and lapatinib-resistant)
T1 sequence (Q9Y5P4 1-624): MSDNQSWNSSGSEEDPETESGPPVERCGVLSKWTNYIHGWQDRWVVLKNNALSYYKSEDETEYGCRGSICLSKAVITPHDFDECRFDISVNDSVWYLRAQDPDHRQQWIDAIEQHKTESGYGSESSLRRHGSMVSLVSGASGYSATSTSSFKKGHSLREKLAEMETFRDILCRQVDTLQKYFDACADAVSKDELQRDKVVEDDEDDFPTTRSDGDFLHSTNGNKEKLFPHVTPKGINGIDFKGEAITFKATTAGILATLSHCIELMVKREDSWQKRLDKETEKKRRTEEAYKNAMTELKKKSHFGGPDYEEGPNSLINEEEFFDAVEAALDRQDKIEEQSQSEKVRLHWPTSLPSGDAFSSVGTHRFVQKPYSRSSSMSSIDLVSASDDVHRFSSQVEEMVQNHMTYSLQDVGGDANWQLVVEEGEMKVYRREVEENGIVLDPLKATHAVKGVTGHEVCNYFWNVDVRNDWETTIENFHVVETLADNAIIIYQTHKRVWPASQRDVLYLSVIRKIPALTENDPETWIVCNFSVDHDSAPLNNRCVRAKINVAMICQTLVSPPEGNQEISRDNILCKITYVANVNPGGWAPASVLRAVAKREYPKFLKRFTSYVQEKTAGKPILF
Description: (§1) MDA-MB-231 cells were grown in DMEM media (Sigma) supplemented with 10% fetal bovine serum (FBS) (Sigma), 2 mM L-glutamine (Thermo Fisher) and 100 U/mL penicillin/ 100 ug/mL streptomycin (Thermo Fisher). MDA-MB-453 cells were grown in DMEM/F12 media (Gibco) supplemented with 10% fetal bovine serum (FBS) (Sigma), 2 mM L-glutamine (Thermo Fisher), 2.5 ug/mL amphotericin B and 100 U/mL penicillin/ 100 ug/mL streptomycin (Thermo Fisher). BT-474 cells were grown in DMEM/F12 media (Gibco) supplemented with 10% fetal bovine serum (FBS) (Sigma), 2 mM L-glutamine (Thermo Fisher), 10 ug/mL insulin, 2.5 ug/mL amphotericin B and 100 U/mL penicillin/ 100 ug/mL streptomycin (Thermo Fisher).
Then, medium was removed and cells were washed with PBS, trypsinized and the pellets were disrupted by probe sonication in a 0.25 M solution of Saccharose. An aliquot was used for protein quantification and the same amount of protein per treatment was treated with laemli buffer (95 °C/5 min). The protein extracts were analyzed by SDS-PAGE electrophoresis followed by immunoblot using the following antibodies: CERT1, Abcam Ab72536; USP14, Cell signaling CS-11931; Actin, Abcam Ab5694.
Chimeras were tested in different types of breast cancer cell lines: • MDA-MB-231, lacking the estrogen receptor (ER), progesterone receptor (PR) and human epidermal growth factor receptor-2 (HER2).

[2] = tested on: MDA-MB-453/WT cells; assay: Cell viability (MTT), sensitization to lapatinib, MDA-MB-453/WT; format: cell-based, human; conditions: 24 h; for sensitization to Lapatinib treatments: Protac 10 µM, lapatinib 3-50 µM, shift of dose response curve vs vehicle; for change in viability: lapatinib 10 µM in the presence of Protac 10 µM; for CC50 vehicle /CC50 Protac ratio: lapatinib CC50 without vs with Protac 10 µM
Description: as §1
(§2) For cell proliferation assays, cells were plated at a density of 10,000 cells/well in a 96-well plate. […] MTT reagent was added to cell culture media. After 3 h incubation, culture medium was replaced by DMSO. MTT formazan crystals were solubilized in DMSO using a plate agitator for 30 min prior to reading absorbance at 570 nm with a SYNERGY H1 microplate reader (BioTek

[3] = tested on: BT-474/WT cells; assay: Cell viability (MTT), sensitization to lapatinib, BT-474/WT; format: cell-based, human; conditions: 24 h; for sensitization to Lapatinib treatments: Protac 20 µM, lapatinib 0.63-30 µM; for CC50 vehicle /CC50 Protac ratio: lapatinib CC50 without vs with Protac 20 µM
Description: as §1, §2

[4] = tested on: MDA-MB-453/Lap cells; assay: Cell viability (MTT), sensitization to lapatinib, MDA-MB-453/Lap; format: cell-based, human; conditions: 24 h; for sensitization to Lapatinib treatments: Protac 10 µM, lapatinib 3-50 µM, shift of dose response curve vs vehicle; for change in viability: lapatinib 10 µM in the presence of Protac 10 µM; for CC50 vehicle /CC50 Protac ratio: lapatinib CC50 without vs with Protac 10 µM
Description: as §1, §2

[5] = tested on: BT-474/Lap cells; assay: Cell viability (MTT), sensitization to lapatinib, BT-474/Lap; format: cell-based, human; conditions: 24 h; for sensitization to Lapatinib treatments: Protac 20 µM, lapatinib 0.63-30 µM, shift of dose response curve vs vehicle; for CC50 vehicle /CC50 Protac ratio: lapatinib CC50 without vs with Protac 20 µM
Description: as §1, §2

[6] = BT-474 (WT) cells, 10 µM, 20 µM per Figure 1 legend
[7] = BT-474/Lap (lapatinib resistant) cells, 1, 5, 10, 20, 30 and 40 µM, immunoblot vs DMSO (Figure 6)
[8] = MDA-MB-231 cells, 10 µM, time course 2, 4, 6, 8, 16 and 24 h
[9] = MDA-MB-453/Lap (lapatinib resistant) cells, 1, 5, 10, 20, 30 and 40 µM, immunoblot vs DMSO (Figure 4)

Row | Structure (SMILES) | degradation of CERT [1, 6] | levels of CERT in cells [1, 7] | degradation of CERT ([1]; MDA-MB-231 cells, 10 µM) | time of CERT degradation effect [1, 8] | time of maximum degradation [1, 8] | degradation of CERT ([1]; MDA-MB-453 (WT) cells, 10 µM) | levels of CERT in cells [1, 9] | sensitization to Lapatinib treatments [2] | change in viability [2] | CC50 vehicle /CC50 Protac ratio [2] | sensitization to Lapatinib treatments [3] | CC50 vehicle /CC50 Protac ratio [3] | sensitization to Lapatinib treatments [4] | change in viability [4] | CC50 vehicle /CC50 Protac ratio [4] | sensitization to Lapatinib treatments [5] | CC50 vehicle /CC50 Protac ratio [5]
1 | Cc1cc(C(=O)N2CCC(COC(=O)NCCOCCOCCOCCn3cc(CCCCCCCCC(=O)N[C@@H](CO)C[C@H](O)c4ccccc4)nn3)CC2)c(C)n1-c1ccc(F)cc1 [RBM3-368] | induced the degradation of CERT | treatments have reduced the levels of CERT in cells | induced the degradation of CERT | 16 to 24 h | 24 h | induced the degradation of CERT | treatments have reduced the levels of CERT in cells |  |  |  |  |  |  |  |  |  | 
2 | Cc1cc(C(=O)N2CCC(COC(=O)NCCOCCOCCn3cc(CCCCCCCCC(=O)N[C@@H](CO)C[C@H](O)c4ccccc4)nn3)CC2)c(C)n1-c1ccc(F)cc1 [RBM3-386, (1-(1-(4-Fluorophenyl)-2,5-dimethyl-1H-pyrrole-3-carbonyl)piperidin-4-yl)methyl (2-(2-(2-(4-(9-(((2R,4S)-1,4-dihydroxy-4-phenylbutan-2-yl)amino)-9-oxononyl)-1H-1,2,3-triazol-1-yl)ethoxy)ethoxy)ethyl) carbamate] | induced the degradation of CERT | treatments have reduced the levels of CERT in cells | induced the degradation of CERT |  |  | induced the degradation of CERT | treatments have reduced the levels of CERT in cells |  |  |  |  |  |  |  |  |  | 
3 | Cc1cc(C(=O)N2CCC(Cn3cc(CCCCCCCCC(=O)N[C@@H](CO)C[C@H](O)c4ccccc4)nn3)CC2)c(C)n1-c1ccc(F)cc1 [RBM3-395, N-((2R,4S)-1,4-Dihydroxy-4-phenylbutan-2-yl)-9-(1-((1-(1-(4-fluorophenyl)-2,5-dimethyl-1H-pyrrole-3-carbonyl)piperidin-4-yl)methyl)-1H-1,2,3-triazol-4-yl)nonanamide] | induced the degradation of CERT | treatments have reduced the levels of CERT in cells | induced the degradation of CERT |  |  | induced the degradation of CERT | treatments have reduced the levels of CERT in cells | Sensitization was also observed, yet mildly | -38% | 2.27 | sensitized cells to lapatinib treatments | 6.22 | potent sensitization | -38% | 2.05 | potent sensitization | 5.23
4 | Cc1cc(C(=O)N2CCC(COC(=O)NCCOCCn3cc(CCCCCCCCC(=O)N[C@@H](CO)C[C@H](O)c4ccccc4)nn3)CC2)c(C)n1-c1ccc(F)cc1 [RBM3-413, (1-(1-(4-Fluorophenyl)-2,5-dimethyl-1H-pyrrole-3-carbonyl)piperidin-4-yl)methyl (2-(2-(4-(9-(((2R,4S)-1,4-dihydroxy-4-phenylbutan-2-yl)amino)-9-oxononyl)-1H-1,2,3-triazol-1-yl)ethoxy)ethyl)carbamate] | induced the degradation of CERT | treatments have reduced the levels of CERT in cells | induced the degradation of CERT |  |  | induced the degradation of CERT | treatments have reduced the levels of CERT in cells | Sensitization was also observed, yet mildly | -38% | 1.98 | sensitized cells to lapatinib treatments | 3.84 | potent sensitization | -38% | 2.33 | potent sensitization | 5.56
5 | Cc1cc(C(=O)N2CCC(COC(=O)NCCOCCOCCOCCOCCOCCn3cc(CCCCCCCCC(=O)N[C@@H](CO)C[C@H](O)c4ccccc4)nn3)CC2)c(C)n1-c1ccc(F)cc1 [RBM3-419, (1-(1-(4-Fluorophenyl)-2,5-dimethyl-1H-pyrrole-3-carbonyl)piperidin-4-yl)methyl (17-(4-(9-(((2R,4S)-1,4-dihydroxy-4-phenylbutan-2-yl)amino)-9-oxononyl)-1H-1,2,3-triazol-1-yl)-3,6,9,12,15-pentaoxaheptadecyl)carbamate] | induced the degradation of CERT | treatments have reduced the levels of CERT in cells | induced the degradation of CERT |  |  | induced the degradation of CERT | treatments have reduced the levels of CERT in cells |  |  |  |  |  |  |  |  |  | 

From EP4617271A1, “PROTEOLYTIC CHIMERAS FOR THE TREATMENT OF A CANCER RELATED TO CERT” (Consejo Superior De Investigaciones Científicas - CSIC, priority 2024, dated 2025)
